Test results reported in patent US8859625B2, “Methods to prepare penta-1,4-dien-3-ones and substituted cyclohexanones and derivatives with antitumoral and antiparasitic properties, the compounds and their uses” (Universidade Bandeirante de Sao Paulo-Academia, Paulista …, priority 2006, dated 2014).
Values after ≈ are worked out from the molar mass of the structure shown. “Also recorded” adds a separate entry of the source.

Legend:
B16F10 melanoma cells = assay: Cytotoxic and antiproliferative effects by the MTT colorimetric method on B16F10 melanoma cells; assay type: cell-based, murine; conditions: Mus musculus, B16-F10, 24 h, compound diluted in Miglyol 810; 24 hour; from the linear equation; read-out: IC50
Text: Analysis of Cytotoxic and Antiproliferative Effects of HB-1 Compound and Miglyol 810® as Control by the MTT Colorimetric Method on B16F10 Melanoma Cells.
The colorimetric methodology for the respiratory route of mitochondria MTT (3-(4,5-dimethylthiazol-2-yl)2,5-diphenyl tetrazolium bromide) was used, as described by MOSMANN (1983). This method is based on the reduction of MTT to formazan by living cells. After growth and in vitro confluence of normal and tumoral cells, different concentrations of the HB-1 compound diluted in Miglyol 810® and the diluent-control (Miglyol 810®) have been added on the adhering cells, incubated for 24 hour. After the referred period, 10 μl of MTT (5 mg/mL) were added and incubated for 3 hours in stove with 5% CO2 at 37° C. After this period, the content of the culture plates were centrifuged for 2 minutes at 1800 rpm, at 4° C., the supernatant was removed and 100 μL of dimethyl sulfoxide (DMSO) were added to dissolve formazan crystals previously constituted and precipitated. The absorbances were obtained by an ELISA reader at 540 nm (TiterTek Multiskan) wavelength, with the results obtained shown in FIG. 12.
IC50 Evaluation for B16F10 Melanoma Cells, Obtained from the Linear Equation.

[1] = tested on: promastigote forms of Leishmania (L) amazonensis (isolate LV79); assay: Promastigote proliferation in Warren medium, Neubauer chamber count; assay type: cell-based
Protocol: Compounds are solubilized with dimethyl sulfoxide (DMSO) to produce a stock solution from which samples with different concentrations are obtained, by adding the culture medium in sufficient volume as required to attain the first desired concentration with the other concentrations being obtained by serial dilution of this first one, at ratio 2. The cultures are incubated at 22° C. or 34° C. for promastigotes and amastigotes, respectively.
As a positive control for parasite viability evaluation, only culture medium and parasite, without any other addition, were used. As toxicity control for the solvent present in compound composition, parasite forms were incubated with DMSO diluted in culture medium.
To quantify the promastigotes, Neubauer chambers are used and the cultures are quantified every 24 hours throughout the incubation period scheduled for each experiment. The samples are prepared from an initial dilution of 20 μL of the culture into 180 μL of the saline solution formulated (PBS+2% formaldehyde) to obtain a 1/10 dilution. Whenever necessary, serial dilutions may be performed from the first dilution. For all experiments, parasite forms should be incubated with several HB-1 concentrations, its respective controls with DMSO (we should have in mind that the initial HB-1 stock solution was prepared with DMSO and that its toxicity in relation to the parasite forms have to be assessed) and the normal culture, without any component additioned to the medium. Countings are performed as duplicates, by two different people and the final result is expressed as the arithmetic average from the two countings. The same procedure is employed to quantify the amastigote forms.
Promastigote forms of Leishmania (L) amazonensis (isolate LV79, 8th passage for the culture medium, day 7 of culture, stationary phase) are incubated in a proportion of 10^6 promastigotes/mL in Warren medium, 3.0 mL final volume, in the presence of different concentrations of HB-1 and of the respective controls in equivalent volume of DMSO and culture medium, as positive control for proliferation and viability. The effect of HB-1 on the promastigotes of Leishmania amazonensis cultivated in Warren medium is shown in the next Table and FIG. 33.

B16F10 melanoma = assay: Histological analysis of mice bearing B16F10 dorsal melanoma; assay type: in vivo, C57BL/6J mice; conditions: diluted in Miglyol 810, 1.15 μg/kg intraperitoneal
Text: Animals are sacrificed by cervical displacement and the organ fragments were collected from the areas next to the tumoral region, stored in vials containing 10% formaldehyde, and fixed to be submitted to the routine histological processing (PARDI, P C; SIMÕES, M J, BINIVIGNAT, G. O—Ultrastructural study of the remodeling of the stroma of persistent-estrous rats—Rev. Chil. Cienc. Méd. Biol 3(2):61-65, 1993).
Melanoma B16F10 cell line are implanted at 5×10^4 cells per animal, the ideal dose to obtain the expected results and already proclaimed for this chosen type of animal.
All animals are treated after Day 14 of tumor implant and, as a result, the sequence of necropsis initiates at Day 15.
To visualize the results of HB-1 administration, animals are allocated into the following groups:
2—HB-1 group, treated with HB-1 diluted in Miglyol 810®, kept under ad libitum feed and water.
In both cases, the standard administered dose is of 1.15 μg/kg, via intraperitoneal as the elicited administration route.
Animals are sacrificed by cervical displacement and necropsis is performed with the material immediately collected and transferred to vials containing 10% formaldehyde and, after a 1 to 2 day period, submitted to a routine histological technique Hystology Technique Manual (Manual De Técnicas Para Histologia—Normal E Patológica: Castro De Tolosa, Rodrigues, Behmer E Freitas Neto, Editora Manole 2003).
After the fixation procedure to the thin plate, the hematoxylin/eosin staining method—Hystology Technique Manual (Manual (Manual De Técnicas Para Histologia—Normal E Patológica: Castro De Tolosa, Rodrigues, Behmer E Freitas Neto, Editora Manole 2003). is applied as it presents good results for tissue and cell morphologic evaluation, mainly to the components in each block.
After staining, the thin plates are mounted, then analysed by a ZEISS microscopy with a AXIOCAM-MRC3 trade mark digital camera, and the resulting pictures processed by a AXIOVISON REL 4.2 (Carl Zeiss Inc.) software, registered by a computer.

## COc1cc(C=CC(=O)C=Cc2ccc(O)c(OC)c2)ccc1O [HB-1, 1,5-Bis-(4-hydroxy-3-methoxy-phenyl)-penta-1,4-dien-3-one]
B16F10 melanoma cells
  IC50: 7 µg/mL (≈ 21.4 µM)
[1]; HB-1 3.12 μg/mL, 24 hours, Warren medium
  N^o. of promastigotes/mL (×10^6): 3.0 ×10^6 promastigotes/mL
[1]; HB-1 3.12 μg/mL, 48 hours, Warren medium
  N^o. of promastigotes/mL (×10^6): 5.95 ×10^6 promastigotes/mL
[1]; HB-1 3.12 μg/mL, 72 hours, Warren medium
  N^o. of promastigotes/mL (×10^6): 10 ×10^6 promastigotes/mL
[1]; HB-1 3.12 μg/mL, 96 hours, Warren medium
  N^o. of promastigotes/mL (×10^6): 11 ×10^6 promastigotes/mL
[1]; HB-1 3.12 μg/mL, 120 hours, Warren medium
  N^o. of promastigotes/mL (×10^6): 17 ×10^6 promastigotes/mL
[1]; HB-1 6.25 μg/mL, 24 hours, Warren medium
  N^o. of promastigotes/mL (×10^6): 2.5 ×10^6 promastigotes/mL
[1]; HB-1 6.25 μg/mL, 48 hours, Warren medium
  N^o. of promastigotes/mL (×10^6): 3.95 ×10^6 promastigotes/mL
[1]; HB-1 6.25 μg/mL, 72 hours, Warren medium
  N^o. of promastigotes/mL (×10^6): 7.15 ×10^6 promastigotes/mL
[1]; HB-1 6.25 μg/mL, 96 hours, Warren medium
  N^o. of promastigotes/mL (×10^6): 13.0 ×10^6 promastigotes/mL
[1]; HB-1 6.25 μg/mL, 120 hours, Warren medium
  N^o. of promastigotes/mL (×10^6): 18.6 ×10^6 promastigotes/mL
[1]; HB-1 12.5 μg/mL to 3.12 μg/mL, Warren medium
  effect on promastigotes in words: sub-lethal
[1]; HB-1 12.5 μg/mL, 24 hours, Warren medium
  N^o. of promastigotes/mL (×10^6): 2.55 ×10^6 promastigotes/mL
[1]; HB-1 12.5 μg/mL, 48 hours, Warren medium
  N^o. of promastigotes/mL (×10^6): 2.25 ×10^6 promastigotes/mL
[1]; HB-1 12.5 μg/mL, 72 hours, Warren medium
  N^o. of promastigotes/mL (×10^6): 3.9 ×10^6 promastigotes/mL
[1]; HB-1 12.5 μg/mL, 96 hours, Warren medium
  N^o. of promastigotes/mL (×10^6): 5.9 ×10^6 promastigotes/mL
[1]; HB-1 12.5 μg/mL, 120 hours, Warren medium
  N^o. of promastigotes/mL (×10^6): 18.3 ×10^6 promastigotes/mL
[1]; HB-1 25 μg/mL, 24 hours, Warren medium
  N^o. of promastigotes/mL (×10^6): 3.25 ×10^6 promastigotes/mL
[1]; HB-1 25 μg/mL, 48 hours, Warren medium
  N^o. of promastigotes/mL (×10^6): 1.8 ×10^6 promastigotes/mL
[1]; HB-1 25 μg/mL, 72 hours, Warren medium
  N^o. of promastigotes/mL (×10^6): 0.4 ×10^6 promastigotes/mL
[1]; HB-1 25 μg/mL, 96 hours, Warren medium
  N^o. of promastigotes/mL (×10^6): 0.1 ×10^6 promastigotes/mL
[1]; HB-1 25 μg/mL, 120 hours, Warren medium
  N^o. of promastigotes/mL (×10^6): 0 ×10^6 promastigotes/mL
[1]; HB-1 25 μg/mL, Warren medium
  time of culture to 100% mortality: 120 h
[1]; HB-1 50 μg/mL, 24 hours, Warren medium
  N^o. of promastigotes/mL (×10^6): 2.1 ×10^6 promastigotes/mL
[1]; HB-1 50 μg/mL, 48 hours, Warren medium
  N^o. of promastigotes/mL (×10^6): 0.4 ×10^6 promastigotes/mL
[1]; HB-1 50 μg/mL, 72 hours, Warren medium
  N^o. of promastigotes/mL (×10^6): 0.1 ×10^6 promastigotes/mL
[1]; HB-1 50 μg/mL, 96 hours, Warren medium
  N^o. of promastigotes/mL (×10^6): 0 ×10^6 promastigotes/mL
[1]; HB-1 50 μg/mL, 120 hours, Warren medium
  N^o. of promastigotes/mL (×10^6): 0 ×10^6 promastigotes/mL
[1]; HB-1 50 μg/mL, Warren medium
  time of culture to 100% mortality: 96 h
[1]; HB-1 100 μg/mL, 24 hours, Warren medium
  N^o. of promastigotes/mL (×10^6): 1.15 ×10^6 promastigotes/mL
[1]; HB-1 100 μg/mL, 48 hours, Warren medium
  N^o. of promastigotes/mL (×10^6): 0.2 ×10^6 promastigotes/mL
[1]; HB-1 100 μg/mL, 72 hours, Warren medium
  N^o. of promastigotes/mL (×10^6): 0 ×10^6 promastigotes/mL
[1]; HB-1 100 μg/mL, 96 hours, Warren medium
  N^o. of promastigotes/mL (×10^6): 0 ×10^6 promastigotes/mL
[1]; HB-1 100 μg/mL, 120 hours, Warren medium
  N^o. of promastigotes/mL (×10^6): 0 ×10^6 promastigotes/mL
[1]; HB-1 100 μg/mL, Warren medium
  time of culture to 100% mortality: 72 h
[1]; Leishmania, 72 h, read-out: inhibition of parasite proliferation
  inhibition at 25 µg/mL: 81%
[1]; Leishmania, HB-1 50 μg/mL, after 72 hours, Warren medium, read-out: inhibition of parasite proliferation
  inhibition at 50 µg/mL: 95.8%
[1]; Leishmania, HB-1 100 μg/mL, after 72 hours, Warren medium, read-out: inhibition of parasite proliferation
  inhibition at 100 µg/mL: 100%
B16F10 melanoma; 14 day treatment
  leukocytic infiltrate in dorsal tumor: presence of a leukocytic infiltrate in the peri- and intratumoral portions
B16F10 melanoma; compared to control group
  lung parenchyma alterations: No alterations of thickness or bronchium epithelium rupture
  metastatic lesions: no metastatic lesions were found; also recorded: presence of metastatic masses or nodules was not observed
